Measured values as given in the kinase profiling compilation of Christmann-Franck et al. (2016).

Key:
Assay in all cases: KINOMEscan competition binding
Settings in all cases: compound 10.0 µM
RPS6KA5 KD2 (human) = RPS6KA5 KD2 (human) (UniProt O75582)
RIOK2 (human) = RIOK2 (human) (UniProt Q9BVS4)
[1] = tested on: FLT3 (human), P36888 [N841I]
STK38L (human) = STK38L (human) (UniProt Q9Y2H1)
PLK1 (human) = PLK1 (human) (UniProt P53350)
ROS1 (human) = ROS1 (human) (UniProt P08922)
NEK1 (human) = NEK1 (human) (UniProt Q96PY6)
Chain of NEK1 (human) (Q96PY6 whole entry, looked up): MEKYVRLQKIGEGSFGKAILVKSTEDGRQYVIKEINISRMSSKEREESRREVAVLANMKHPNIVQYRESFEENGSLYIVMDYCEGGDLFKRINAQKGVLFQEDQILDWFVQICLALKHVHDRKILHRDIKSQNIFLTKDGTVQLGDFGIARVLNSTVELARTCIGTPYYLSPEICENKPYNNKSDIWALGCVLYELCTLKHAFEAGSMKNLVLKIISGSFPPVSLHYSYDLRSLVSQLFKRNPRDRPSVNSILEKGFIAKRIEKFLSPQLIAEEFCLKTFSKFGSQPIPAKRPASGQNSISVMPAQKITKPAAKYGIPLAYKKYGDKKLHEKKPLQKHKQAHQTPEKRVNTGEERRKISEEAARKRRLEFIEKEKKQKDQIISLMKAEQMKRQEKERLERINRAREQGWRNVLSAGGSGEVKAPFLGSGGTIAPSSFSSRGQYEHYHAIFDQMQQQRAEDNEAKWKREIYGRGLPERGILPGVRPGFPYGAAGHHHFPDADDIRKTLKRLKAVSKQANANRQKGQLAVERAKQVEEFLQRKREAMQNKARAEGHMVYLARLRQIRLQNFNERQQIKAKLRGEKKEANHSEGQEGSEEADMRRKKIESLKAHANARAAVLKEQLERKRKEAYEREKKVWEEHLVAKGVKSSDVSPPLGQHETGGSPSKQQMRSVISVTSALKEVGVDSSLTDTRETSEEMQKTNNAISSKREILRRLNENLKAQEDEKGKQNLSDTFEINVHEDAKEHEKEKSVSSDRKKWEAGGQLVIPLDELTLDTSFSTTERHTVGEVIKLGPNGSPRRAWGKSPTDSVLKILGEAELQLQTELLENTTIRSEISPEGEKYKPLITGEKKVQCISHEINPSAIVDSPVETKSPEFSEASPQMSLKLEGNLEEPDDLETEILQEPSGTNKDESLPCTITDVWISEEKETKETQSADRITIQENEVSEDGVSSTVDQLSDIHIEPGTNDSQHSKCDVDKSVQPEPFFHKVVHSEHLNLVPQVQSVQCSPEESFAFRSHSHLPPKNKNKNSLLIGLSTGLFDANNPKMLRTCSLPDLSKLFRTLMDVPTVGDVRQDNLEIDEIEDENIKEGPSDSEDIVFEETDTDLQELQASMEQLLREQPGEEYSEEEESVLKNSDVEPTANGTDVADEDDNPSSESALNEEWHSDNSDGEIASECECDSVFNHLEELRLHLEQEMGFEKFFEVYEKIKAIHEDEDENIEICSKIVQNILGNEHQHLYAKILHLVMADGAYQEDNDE

AURKB (human) = AURKB (human) (UniProt Q96GD4)
DYRK1B (human) = DYRK1B (human) (UniProt Q9Y463)
KDR (human) = KDR (human) (UniProt P35968)
PRKCE (human) = PRKCE (human) (UniProt Q02156)
MARK2 (human) = MARK2 (human) (UniProt Q7KZI7)
MAPK11 (human) = MAPK11 (human) (UniProt Q15759)
DCLK2 (human) = DCLK2 (human) (UniProt Q8N568)
Chain of DCLK2 (human) (Q8N568 whole entry, looked up): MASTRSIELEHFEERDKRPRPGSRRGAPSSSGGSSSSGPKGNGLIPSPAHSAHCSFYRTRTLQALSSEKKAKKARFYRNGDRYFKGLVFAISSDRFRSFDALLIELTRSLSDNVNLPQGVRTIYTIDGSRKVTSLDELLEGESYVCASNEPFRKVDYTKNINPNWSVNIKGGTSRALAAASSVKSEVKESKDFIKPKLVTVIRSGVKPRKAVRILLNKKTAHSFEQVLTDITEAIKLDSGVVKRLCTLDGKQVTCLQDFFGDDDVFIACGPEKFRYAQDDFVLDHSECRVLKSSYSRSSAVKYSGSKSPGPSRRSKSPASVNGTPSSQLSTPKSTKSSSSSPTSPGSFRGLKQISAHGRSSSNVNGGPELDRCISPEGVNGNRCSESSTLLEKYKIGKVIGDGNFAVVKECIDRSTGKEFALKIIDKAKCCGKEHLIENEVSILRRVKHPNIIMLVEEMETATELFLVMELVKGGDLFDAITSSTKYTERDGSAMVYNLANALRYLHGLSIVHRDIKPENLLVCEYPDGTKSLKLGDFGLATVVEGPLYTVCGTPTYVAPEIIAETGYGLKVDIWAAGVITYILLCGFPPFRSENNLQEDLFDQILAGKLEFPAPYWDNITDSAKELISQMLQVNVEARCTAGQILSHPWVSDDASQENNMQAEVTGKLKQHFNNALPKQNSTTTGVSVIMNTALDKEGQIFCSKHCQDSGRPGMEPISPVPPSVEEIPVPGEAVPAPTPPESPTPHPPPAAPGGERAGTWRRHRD

CSNK2A2 (human) = CSNK2A2 (human) (UniProt P19784)
PIP4K2B (human) = PIP4K2B (human) (UniProt P78356)
CLK4 (human) = CLK4 (human) (UniProt Q9HAZ1)
PRKAA1 (human) = PRKAA1 (human) (UniProt Q13131)
MKNK1 (human) = MKNK1 (human) (UniProt Q9BUB5)
Chain of MKNK1 (human) (Q9BUB5 whole entry, looked up): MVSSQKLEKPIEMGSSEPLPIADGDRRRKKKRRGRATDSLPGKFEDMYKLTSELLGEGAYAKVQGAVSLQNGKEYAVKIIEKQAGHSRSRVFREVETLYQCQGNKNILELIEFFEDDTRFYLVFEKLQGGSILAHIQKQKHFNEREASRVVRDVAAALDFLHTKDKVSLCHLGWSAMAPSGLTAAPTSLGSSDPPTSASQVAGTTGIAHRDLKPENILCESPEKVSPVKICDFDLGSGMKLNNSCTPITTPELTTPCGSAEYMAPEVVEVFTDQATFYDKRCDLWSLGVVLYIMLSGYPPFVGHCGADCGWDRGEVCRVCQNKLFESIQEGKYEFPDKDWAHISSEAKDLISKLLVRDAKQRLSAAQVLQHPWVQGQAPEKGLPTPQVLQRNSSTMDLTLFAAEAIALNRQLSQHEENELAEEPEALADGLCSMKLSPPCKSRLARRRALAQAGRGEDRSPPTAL

PAK2 (human) = PAK2 (human) (UniProt Q13177)
LATS1 (human) = LATS1 (human) (UniProt O95835)
STK17B (human) = STK17B (human) (UniProt O94768)
RPS6KA5 KD1 (human) = RPS6KA5 KD1 (human) (UniProt O75582)
TYRO3 (human) = TYRO3 (human) (UniProt Q06418)
Chain of TYRO3 (human) (Q06418 whole entry, looked up): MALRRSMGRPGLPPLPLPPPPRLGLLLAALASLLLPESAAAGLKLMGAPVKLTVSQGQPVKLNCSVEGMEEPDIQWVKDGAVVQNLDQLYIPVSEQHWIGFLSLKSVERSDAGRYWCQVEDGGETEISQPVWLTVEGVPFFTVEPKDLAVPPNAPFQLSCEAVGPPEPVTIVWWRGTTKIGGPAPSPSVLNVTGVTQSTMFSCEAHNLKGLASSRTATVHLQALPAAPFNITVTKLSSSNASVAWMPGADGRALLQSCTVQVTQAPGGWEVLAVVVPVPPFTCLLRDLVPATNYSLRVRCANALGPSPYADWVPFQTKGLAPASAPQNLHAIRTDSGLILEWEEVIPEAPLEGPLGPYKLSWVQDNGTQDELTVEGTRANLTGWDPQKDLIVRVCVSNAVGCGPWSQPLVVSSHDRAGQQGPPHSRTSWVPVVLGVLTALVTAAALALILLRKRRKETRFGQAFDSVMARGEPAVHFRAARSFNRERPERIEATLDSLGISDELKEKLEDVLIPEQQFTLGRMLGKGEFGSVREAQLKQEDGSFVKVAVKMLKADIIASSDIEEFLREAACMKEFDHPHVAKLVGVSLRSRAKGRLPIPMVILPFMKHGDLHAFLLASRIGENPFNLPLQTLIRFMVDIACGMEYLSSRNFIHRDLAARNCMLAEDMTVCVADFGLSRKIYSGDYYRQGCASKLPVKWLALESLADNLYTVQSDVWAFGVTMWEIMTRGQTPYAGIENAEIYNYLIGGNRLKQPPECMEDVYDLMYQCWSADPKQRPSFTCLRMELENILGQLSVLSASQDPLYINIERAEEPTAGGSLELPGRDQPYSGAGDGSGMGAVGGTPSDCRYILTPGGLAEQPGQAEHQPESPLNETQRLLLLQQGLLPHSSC

PTK6 (human) = PTK6 (human) (UniProt Q13882)
[2] = tested on: FLT3 (human), P36888 [ITD]
ANKK1 (human) = ANKK1 (human) (UniProt Q8NFD2)
MYLK2 (human) = MYLK2 (human) (UniProt Q9H1R3)
ALK (human) = ALK (human) (UniProt Q9UM73)
HIPK1 (human) = HIPK1 (human) (UniProt Q86Z02)
TAOK1 (human) = TAOK1 (human) (UniProt Q7L7X3)
TLK2 (human) = TLK2 (human) (UniProt Q86UE8)
MAPK13 (human) = MAPK13 (human) (UniProt O15264)
PRKX (human) = PRKX (human) (UniProt P51817)
EPHA7 (human) = EPHA7 (human) (UniProt Q15375)
PRKG1 (human) = PRKG1 (human) (UniProt Q13976)
Chain of PRKG1 (human) (Q13976 whole entry, looked up): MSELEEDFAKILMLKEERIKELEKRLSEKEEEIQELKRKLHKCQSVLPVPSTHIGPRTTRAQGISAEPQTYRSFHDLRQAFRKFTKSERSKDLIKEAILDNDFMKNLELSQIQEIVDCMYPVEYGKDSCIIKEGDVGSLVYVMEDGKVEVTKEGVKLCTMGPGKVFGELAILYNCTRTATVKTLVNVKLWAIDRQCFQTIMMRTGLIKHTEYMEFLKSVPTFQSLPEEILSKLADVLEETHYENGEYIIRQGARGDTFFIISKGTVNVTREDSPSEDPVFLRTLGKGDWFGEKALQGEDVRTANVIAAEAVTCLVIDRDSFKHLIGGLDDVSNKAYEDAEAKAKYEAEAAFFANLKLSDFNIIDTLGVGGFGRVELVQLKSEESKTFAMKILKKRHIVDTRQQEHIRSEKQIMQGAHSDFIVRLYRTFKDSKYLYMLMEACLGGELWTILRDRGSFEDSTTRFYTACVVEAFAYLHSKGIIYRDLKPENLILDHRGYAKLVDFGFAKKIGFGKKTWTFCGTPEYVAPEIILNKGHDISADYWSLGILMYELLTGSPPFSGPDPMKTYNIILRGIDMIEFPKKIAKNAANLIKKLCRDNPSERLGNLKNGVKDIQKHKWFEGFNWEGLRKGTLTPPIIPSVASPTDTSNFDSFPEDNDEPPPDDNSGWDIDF

FLT3 (human) = FLT3 (human) (UniProt P36888)
EPHB3 (human) = EPHB3 (human) (UniProt P54753)
MAP4K5 (human) = MAP4K5 (human) (UniProt Q9Y4K4)
CAMK1D (human) = CAMK1D (human) (UniProt Q8IU85)
Chain of CAMK1D (human) (Q8IU85 whole entry, looked up): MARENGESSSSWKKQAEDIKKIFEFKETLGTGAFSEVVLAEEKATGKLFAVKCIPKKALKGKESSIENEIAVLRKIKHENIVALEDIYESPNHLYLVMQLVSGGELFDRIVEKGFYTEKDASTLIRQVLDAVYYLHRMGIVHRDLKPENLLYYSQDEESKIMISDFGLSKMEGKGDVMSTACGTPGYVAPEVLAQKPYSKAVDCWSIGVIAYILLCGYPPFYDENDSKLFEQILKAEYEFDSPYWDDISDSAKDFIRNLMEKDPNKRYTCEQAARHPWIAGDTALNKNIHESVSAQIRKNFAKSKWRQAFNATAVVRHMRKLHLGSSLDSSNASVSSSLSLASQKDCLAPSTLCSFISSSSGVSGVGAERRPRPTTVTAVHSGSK

Chain of STK38L (human) (Q9Y2H1 whole entry, looked up): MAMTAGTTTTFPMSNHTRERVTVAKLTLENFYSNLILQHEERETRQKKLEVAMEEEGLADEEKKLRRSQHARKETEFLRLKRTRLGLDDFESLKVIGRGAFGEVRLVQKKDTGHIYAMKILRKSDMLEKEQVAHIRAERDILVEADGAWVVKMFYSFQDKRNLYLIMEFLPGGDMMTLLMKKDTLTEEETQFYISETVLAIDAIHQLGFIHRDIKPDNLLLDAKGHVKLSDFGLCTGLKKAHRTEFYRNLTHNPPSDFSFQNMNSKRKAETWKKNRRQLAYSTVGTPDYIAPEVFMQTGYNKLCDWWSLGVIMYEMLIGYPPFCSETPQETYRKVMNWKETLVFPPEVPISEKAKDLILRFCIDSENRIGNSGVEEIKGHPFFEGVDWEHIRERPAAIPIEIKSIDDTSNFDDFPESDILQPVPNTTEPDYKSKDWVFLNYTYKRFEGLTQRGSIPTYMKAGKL

C=CC(=O)Nc1cc(NC(=O)c2ccc(C)c(NC(=O)c3ccno3)c2)cc(C(F)(F)F)c1
kinase still bound, per cent of control (RPS6KA5 KD2 (human)): 90% | kinase still bound, per cent of control (RIOK2 (human)): 92% | kinase still bound, per cent of control [1]: 82% | kinase still bound, per cent of control (STK38L (human)): 88% | kinase still bound, per cent of control (PLK1 (human)): 77% | kinase still bound, per cent of control (ROS1 (human)): 100% | kinase still bound, per cent of control (NEK1 (human)): 100% | kinase still bound, per cent of control (AURKB (human)): 100% | kinase still bound, per cent of control (DYRK1B (human)): 95% | kinase still bound, per cent of control (KDR (human)): 87% | kinase still bound, per cent of control (PRKCE (human)): 100% | kinase still bound, per cent of control (MARK2 (human)): 100% | kinase still bound, per cent of control (MAPK11 (human)): 4.8% | kinase still bound, per cent of control (DCLK2 (human)): 100% | kinase still bound, per cent of control (CSNK2A2 (human)): 81% | kinase still bound, per cent of control (PIP4K2B (human)): 100% | kinase still bound, per cent of control (CLK4 (human)): 100% | kinase still bound, per cent of control (PRKAA1 (human)): 100% | kinase still bound, per cent of control (MKNK1 (human)): 100% | kinase still bound, per cent of control (PAK2 (human)): 71% | kinase still bound, per cent of control (LATS1 (human)): 100% | kinase still bound, per cent of control (STK17B (human)): 89% | kinase still bound, per cent of control (RPS6KA5 KD1 (human)): 82% | kinase still bound, per cent of control (TYRO3 (human)): 93% | kinase still bound, per cent of control (PTK6 (human)): 100% | kinase still bound, per cent of control [2]: 99% | kinase still bound, per cent of control (ANKK1 (human)): 99% | kinase still bound, per cent of control (MYLK2 (human)): 100% | kinase still bound, per cent of control (ALK (human)): 95% | kinase still bound, per cent of control (HIPK1 (human)): 97% | kinase still bound, per cent of control (TAOK1 (human)): 76% | kinase still bound, per cent of control (TLK2 (human)): 100% | kinase still bound, per cent of control (MAPK13 (human)): 90% | kinase still bound, per cent of control (PRKX (human)): 84% | kinase still bound, per cent of control (EPHA7 (human)): 77% | kinase still bound, per cent of control (PRKG1 (human)): 100% | kinase still bound, per cent of control (FLT3 (human)): 100% | kinase still bound, per cent of control (EPHB3 (human)): 99% | kinase still bound, per cent of control (MAP4K5 (human)): 100% | kinase still bound, per cent of control (CAMK1D (human)): 83%
